The record followed here is ChEMBL document CHEMBL2034889, “The design and synthesis of novel, potent and orally bioavailable N-aryl piperazine-1-carboxamide CCR2 antagonists with very high hERG selectivity” (Bioorg Med Chem Lett, 2012).

Series [1] deals with Voltage-gated inwardly rectifying potassium channel KCNH2 (Homo sapiens, UniProt Q12809).
Series [2] addresses T1, C-C chemokine receptor type 2 (Homo sapiens, UniProt P41597). The series is described as follows: Displacement of 125I-MCP1 from human CCR2 receptor expressed in human THP-1 cell membrane by SPA assay. Type of series: cell membranes.
In series [3] the target is T1, C-C chemokine receptor type 2. Briefly: Antagonist activity at human CCR2 receptor expressed in human THP-1 cells assessed as inhibition of MCP1-induced Ca2+ flux by FLIPR analysis. It is filed as functional, cell-based.
The target is the same in series [4]. The series is described as follows: Displacement of 125I-MCP1 from human CCR2 receptor expressed in human HEK cell membrane. Type of series: cell membranes, HEK293.
A short description of series [5]: Lipophilicity, log D of the compound at pH 7.4. The following applies: buffer. It is filed as physicochemical.
Series [6] is described as follows: Dissociation constant, pKa of the compound. It is filed as physicochemical.
Series [7] can be described thus: Lipophilicity, log P of the compound at pH 7.4. Type of series: physicochemical. The settings on record: buffer.
The nature of series [8]: Oral bioavailability in rat. Type of series: ADME, organism-based. The settings on record: in vivo.
The nature of series [9]: Aqueous solubility at pH 7. 4. It is filed as physicochemical. The following applies: buffer.
Series [10] can be described thus: Intrinsic clearance in human microsomes assessed per mg of protein. Type of series: ADME, Microsome.
Series [11] concerns the target Cytochrome P450 2D6 (Homo sapiens, UniProt P10635). The series is described as follows: Inhibition of CYP2D6. It is filed as ADME.
Series [12] can be described thus: Intrinsic clearance in rat hepatocytes assessed per 10^6 cells. It is filed as ADME, cell-based, Hepatocyte. The settings on record: read-out: CLH.
A short description of series [13]: Half life in rat. Type of series: ADME, organism-based. The following applies: in vivo.
Series [14] can be described thus: Fraction unbound in rat plasma. It is filed as ADME, cell-free.
Series [15] is described as follows: Fraction unbound in human plasma. Type of series: ADME, cell-free.
Series [16] is described as follows: Clearance in iv dosed rat. It is filed as ADME, organism-based. The settings on record: in vivo.
Series [17] addresses Cytochrome P450 3A4 (Homo sapiens, UniProt P08684). The series is described as follows: Inhibition of CYP3A4. It is filed as ADME.
A short description of series [18]: Volume of distribution in rat. The following applies: in vivo. Type of series: ADME, organism-based.

Molecules are shown by their SMILES. In brackets after ≈: the same amount, converted by molar mass.

Sequence of Voltage-gated inwardly rectifying potassium channel KCNH2 (Q12809 whole entry): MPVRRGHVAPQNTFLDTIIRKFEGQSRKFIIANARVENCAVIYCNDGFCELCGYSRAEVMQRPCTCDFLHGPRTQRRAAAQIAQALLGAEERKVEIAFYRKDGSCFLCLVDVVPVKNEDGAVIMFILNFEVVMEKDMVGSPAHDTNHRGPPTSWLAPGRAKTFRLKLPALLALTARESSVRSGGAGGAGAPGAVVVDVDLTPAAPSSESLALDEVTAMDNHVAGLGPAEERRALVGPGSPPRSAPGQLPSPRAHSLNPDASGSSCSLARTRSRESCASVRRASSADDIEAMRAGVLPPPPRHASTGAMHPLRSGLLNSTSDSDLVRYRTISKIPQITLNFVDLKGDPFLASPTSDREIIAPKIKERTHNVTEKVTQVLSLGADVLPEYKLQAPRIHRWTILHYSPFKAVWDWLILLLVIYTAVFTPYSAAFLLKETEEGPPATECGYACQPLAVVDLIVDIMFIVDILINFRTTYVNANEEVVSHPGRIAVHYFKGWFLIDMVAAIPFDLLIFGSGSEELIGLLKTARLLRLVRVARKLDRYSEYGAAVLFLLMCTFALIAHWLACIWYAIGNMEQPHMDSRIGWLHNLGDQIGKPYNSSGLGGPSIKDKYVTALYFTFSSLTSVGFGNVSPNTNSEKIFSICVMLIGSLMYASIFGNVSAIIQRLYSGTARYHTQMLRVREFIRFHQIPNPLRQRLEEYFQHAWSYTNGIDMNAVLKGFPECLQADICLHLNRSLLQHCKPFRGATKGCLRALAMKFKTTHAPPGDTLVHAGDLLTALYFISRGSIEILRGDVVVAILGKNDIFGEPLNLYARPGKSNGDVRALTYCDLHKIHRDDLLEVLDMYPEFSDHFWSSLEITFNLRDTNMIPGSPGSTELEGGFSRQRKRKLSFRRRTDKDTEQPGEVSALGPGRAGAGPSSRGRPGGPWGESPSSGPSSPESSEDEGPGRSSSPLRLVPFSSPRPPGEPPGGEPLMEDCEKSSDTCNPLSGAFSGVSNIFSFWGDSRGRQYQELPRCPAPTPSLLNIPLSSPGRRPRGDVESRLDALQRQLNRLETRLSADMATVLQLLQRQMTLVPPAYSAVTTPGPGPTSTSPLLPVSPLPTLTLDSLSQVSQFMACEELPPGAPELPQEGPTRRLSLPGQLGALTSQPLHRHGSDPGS
T1 sequence (P41597 whole entry): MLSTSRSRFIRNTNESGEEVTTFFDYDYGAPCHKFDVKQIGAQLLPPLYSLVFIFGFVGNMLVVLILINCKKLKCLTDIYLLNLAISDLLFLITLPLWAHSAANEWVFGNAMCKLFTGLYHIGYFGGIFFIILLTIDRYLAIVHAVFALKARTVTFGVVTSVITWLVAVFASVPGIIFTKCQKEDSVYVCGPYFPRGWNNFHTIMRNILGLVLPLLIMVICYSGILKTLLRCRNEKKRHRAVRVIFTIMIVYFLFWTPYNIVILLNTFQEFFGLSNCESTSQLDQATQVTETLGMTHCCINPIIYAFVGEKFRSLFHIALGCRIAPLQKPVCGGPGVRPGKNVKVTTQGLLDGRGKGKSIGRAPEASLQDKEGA
Sequence of Cytochrome P450 2D6 (P10635 whole entry): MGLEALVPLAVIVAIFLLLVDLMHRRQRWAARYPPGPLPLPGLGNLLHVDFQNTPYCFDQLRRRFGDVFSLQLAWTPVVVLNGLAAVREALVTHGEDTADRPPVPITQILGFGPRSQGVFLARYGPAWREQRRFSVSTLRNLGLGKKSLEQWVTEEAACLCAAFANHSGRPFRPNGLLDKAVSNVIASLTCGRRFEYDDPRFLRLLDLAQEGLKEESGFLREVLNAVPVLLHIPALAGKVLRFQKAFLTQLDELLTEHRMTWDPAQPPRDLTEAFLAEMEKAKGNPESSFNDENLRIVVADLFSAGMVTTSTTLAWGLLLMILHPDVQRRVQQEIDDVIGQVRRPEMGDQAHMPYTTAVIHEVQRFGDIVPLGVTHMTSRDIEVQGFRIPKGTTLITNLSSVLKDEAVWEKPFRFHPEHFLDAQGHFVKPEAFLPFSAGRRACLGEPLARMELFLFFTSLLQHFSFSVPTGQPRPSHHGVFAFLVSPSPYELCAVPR
Sequence of Cytochrome P450 3A4 (P08684 whole entry): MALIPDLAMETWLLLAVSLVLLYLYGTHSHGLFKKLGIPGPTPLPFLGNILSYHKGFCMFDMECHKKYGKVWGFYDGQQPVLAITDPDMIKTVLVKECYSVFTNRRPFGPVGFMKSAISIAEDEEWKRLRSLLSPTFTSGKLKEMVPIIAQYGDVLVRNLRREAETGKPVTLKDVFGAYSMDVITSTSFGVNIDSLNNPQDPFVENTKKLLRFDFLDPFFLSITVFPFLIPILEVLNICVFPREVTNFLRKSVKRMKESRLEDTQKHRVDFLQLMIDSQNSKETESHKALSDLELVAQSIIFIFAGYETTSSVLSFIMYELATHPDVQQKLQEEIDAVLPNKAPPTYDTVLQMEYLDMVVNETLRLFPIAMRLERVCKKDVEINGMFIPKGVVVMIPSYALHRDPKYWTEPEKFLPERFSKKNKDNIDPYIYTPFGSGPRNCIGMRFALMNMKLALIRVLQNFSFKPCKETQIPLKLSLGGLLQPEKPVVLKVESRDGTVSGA

In the case of `O=C(Nc1ccc(Cl)c(Cl)c1)N1CCN(C[C@@H]2CCCN(CCCc3ccccc3)C2)CC1`, the IC50 turned out to be 400 nM in series [1], 64 nM in series [2] and 280 nM in series [3].

Consider `CCN1CCCC(CN2CCN(C(=O)Nc3ccc(Cl)c(Cl)c3)CC2)C1` (racemic), for which the IC50 is 4300 nM in series [1], 123 nM in series [2] and 627 nM in series [3].

With `CCN1CCO[C@@H](CN2CCN(C(=O)Nc3ccc(Cl)c(Cl)c3)CC2)C1`, the IC50 was determined as 7900 nM in series [1], 64 nM in [2] and 277 nM in series [3].

As for `CCN1CCC[C@@H](CN2CCN(C(=O)Nc3ccc(Cl)c(Cl)c3)CC2)C1`, the concentration for half-maximal inhibition (IC50) in [1] worked out at 2100 nM; in [2], 37 nM; in series [3], 174 nM.

Regarding `CC(C)N1CCO[C@@H](CN2CCN(C(=O)Nc3ccc(Cl)c(Cl)c3)CC2)C1`, the results for the IC50 in series [1], in series [2] and in series [3] were 6300 nM, 17 nM and 42 nM, respectively.

With `O=C(Nc1ccc(F)c(Cl)c1)N1CCN(C[C@@H]2CCCN(C3CC3)C2)CC1`, the IC50 in series [1] came to 14000 nM; in [2], 50 nM; in series [3] it was 75 nM.

With `O=C(Nc1ccccc1)N1CCN(C[C@@H]2CCCN(C3CC3)C2)CC1`, the IC50 in series [2] was 710 nM; in series [3] it was > 3000 nM.

As for `O=C(Nc1ccc(Cl)c(Cl)c1)N1CCN(C(=O)[C@H]2CN(C3CC3)CCN2)CC1`, the values for the IC50 in [1], in series [2] and in series [3] were 19000 nM, 32 nM and 38 nM, respectively.

For `O=C(Nc1ccccc1Cl)N1CCN(C[C@@H]2CCCN(C3CC3)C2)CC1`, the IC50 in series [2] was > 10000 nM.

For the compound `Cc1ccc(NC(=O)N2CCN(C[C@@H]3CCCN(C4CC4)C3)CC2)cc1Cl`, the results for the IC50 in series [1], in [2] and in series [3] were 7100 nM, 27 nM and 184 nM, respectively.

As for `CCN1CCC[C@H](CN2CCN(C(=O)Nc3ccc(Cl)c(Cl)c3)CC2)C1`, the IC50 in series [2] turned out to be 1180 nM.

Turning to `O=C(Nc1ccc(Cl)cc1)N1CCN(C[C@@H]2CCCN(C3CC3)C2)CC1`, the concentration for half-maximal inhibition (IC50) was 14000 nM in series [1], 127 nM in series [2] and 220 nM in series [3].

`O=C(Nc1ccc(Br)cc1)N1CCN(C[C@@H]2CCCN(C3CC3)C2)CC1`: the values for the IC50 in [1], in series [2] and in [3] were 7100 nM, 58 nM and 162 nM, respectively.

Regarding `CC(C)N1CCN[C@@H](CN2CCN(C(=O)Nc3ccc(Cl)c(Cl)c3)CC2)C1`, the results for the half-inhibitory concentration (IC50) in series [2] and in [3] were 26 nM and 32 nM, respectively.

As for `O=C(Nc1ccc(C(F)(F)F)cc1)N1CCN(C[C@@H]2CCCN(C3CC3)C2)CC1`, the IC50 came to 68 nM in series [2] and 593 nM in series [3].

In the case of `CS(=O)(=O)c1cccc(NC(=O)N2CCN(C[C@@H]3CCCN(C4CC4)C3)CC2)c1`, in [2], the IC50 was > 10000 nM.

For `O=C(Nc1ccc(Cl)c(Cl)c1)N1CCN(C[C@H]2CN(C3CC3)CCO2)CC1`, the IC50 in series [2] came to 267 nM; in series [3], 262 nM.

Take `N#Cc1cccc(NC(=O)N2CCN(C[C@@H]3CCCN(C4CC4)C3)CC2)c1`: the IC50 was determined as 1050 nM in series [2] and 5870 nM in series [3].

For the compound `CN1CCCC(CN2CCN(C(=O)Nc3ccc(Cl)c(Cl)c3)CC2)C1` (stereo unspecified), the concentration for half-maximal inhibition (IC50) in series [1] is 1600 nM; in series [2] it was 170 nM; in series [3], 965 nM. In addition, the inhibition constant Ki in series [4] was found to be 400 nM.

Regarding `O=C(Nc1ccc(Cl)c(Cl)c1)N1CCN(C[C@@H]2CCCN(Cc3ccccc3)C2)CC1`, the values for the IC50 in series [2] and in [3] were 99 nM and 244 nM, respectively.

Take `COc1ccc(NC(=O)N2CCN(C[C@@H]3CCCN(C4CC4)C3)CC2)cc1`: the IC50 in [2] was 1460 nM.

`O=C(Nc1ccc(C(F)(F)F)c(Cl)c1)N1CCN(C[C@@H]2CCCN(C3CC3)C2)CC1`: the IC50 in [2] turned out to be 17 nM; in series [3], 31 nM.

As for `O=C(Nc1ccc(Cl)c(Cl)c1)N1CCN(C[C@@H]2CCCN(CC3CC3)C2)CC1`, the half-inhibitory concentration (IC50) was 52 nM in [2] and 161 nM in series [3].

Regarding `O=C(Nc1cccc(C(F)(F)F)c1)N1CCN(C[C@@H]2CCCN(C3CC3)C2)CC1`, the IC50 in series [1] was determined as 13000 nM; in series [2], 98 nM; in series [3] it was 578 nM.

For `CN1CCN(C)C(C(=O)N2CCN(C(=O)Nc3ccc(Cl)c(Cl)c3)CC2)C1` (racemic), the values for the IC50 in [1] and in series [2] were 13000 nM and 5500 nM, respectively.

For the compound `CCN1CCN[C@@H](C(=O)N2CCN(C(=O)Nc3ccc(Cl)c(Cl)c3)CC2)C1`, the results for the IC50 in series [2] and in series [3] were 21 nM and 55 nM, respectively.

Consider `O=C(Nc1ccc(Cl)c(Cl)c1)N1CCN(CC2CCCNC2)CC1` (racemic), for which the half-maximal inhibitory concentration (IC50) in [2] turned out to be 780 nM; in series [3], 950 nM.

As to `O=C(Nc1ccc(Cl)c(C(F)(F)F)c1)N1CCN(C[C@@H]2CCCN(C3CC3)C2)CC1`, the results for the IC50 in series [1], in series [2] and in [3] were 6300 nM, 35 nM and 421 nM, respectively.

On to `O=C(Nc1cccc(Cl)c1)N1CCN(C[C@@H]2CCCN(C3CC3)C2)CC1`, for which the figures for the IC50 in series [2] and in series [3] were 171 nM and 202 nM, respectively.

Turning to `CCN1CCOC(C(=O)N2CCN(C(=O)Nc3ccc(Cl)c(Cl)c3)CC2)C1` (racemic), the concentration for half-maximal inhibition (IC50) in series [1] is 5000 nM; in series [2], 2570 nM; in series [3], > 1000 nM.

Consider `CCN1CCNC(CN2CCN(C(=O)Nc3ccc(Cl)c(Cl)c3)CC2)C1` (racemic), for which the IC50 in series [1] was found to be 8900 nM; in series [2], 797 nM.

Consider `CCN1CCC[C@@H](C(=O)N2CCN(C(=O)Nc3ccc(Cl)c(Cl)c3)CC2)C1`, for which the IC50 in series [2] is 856 nM; in series [3] it was 588 nM.

For `CC(C)N1CCC[C@@H](CN2CCN(C(=O)Nc3ccc(Cl)c(Cl)c3)CC2)C1`, the IC50 is 1300 nM in [1], 16 nM in series [2] and 58 nM in series [3]. The compound also gave a logD in series [5] of 1.62. The compound further had a pKa in series [6] of 10. Also, in series [7], the logP is 4.2.

Turning to `CN1CCN[C@@H](C(=O)N2CCN(C(=O)Nc3ccc(Cl)c(Cl)c3)CC2)C1`, the values for the IC50 in series [1], in series [2] and in [3] were 20000 nM, 69 nM and 362 nM, respectively.

In the case of `N#Cc1ccc(NC(=O)N2CCN(C[C@@H]3CCCN(C4CC4)C3)CC2)cc1`, the half-maximal inhibitory concentration (IC50) in series [2] stood at 449 nM; in series [3], 4360 nM.

`O=C(Nc1ccc(Cl)c(Cl)c1)N1CCN(C[C@@H]2CCCN(C3CC3)C2)CC1` had a bioavailability in series [8] of 11%. For the same compound, the solubility in series [9] is 290 µM (≈ 119 µg/mL). In series [10], the microsomal CLint is 5 µL/min/mg. Further, the IC50 worked out at 3100 nM in series [11], 10 nM in series [2], 1600 nM in series [17] and 64 nM in [3]. In series [12], the hepatocyte CLint is 11 µL/min/1e6 cells. The compound also had a half-life in [13] of 5 h. In addition, the fraction unbound in series [14] and in [15] was 0.05 in each case. Also, the clearance in series [16] amounted to 24 mL/min/kg. The compound also returned a Vd in series [18] of 8 L/kg.

As to `O=C(Nc1ccc(Cl)c(Cl)c1)N1CCN(C[C@@H]2CCCN(CCc3ccccc3)C2)CC1`, the IC50 in series [2] was 5 nM; in series [3], 42 nM.
